{"source": "paper PMC4595804", "about": "“A strategy to discover decoy chemokine ligands with an anti-inflammatory activity” (Scientific Reports, 2015)", "key": {"CXCR4": {"target": "CXCR4 (Homo sapiens, UniProt P61073)", "sequence (P61073 whole entry)": "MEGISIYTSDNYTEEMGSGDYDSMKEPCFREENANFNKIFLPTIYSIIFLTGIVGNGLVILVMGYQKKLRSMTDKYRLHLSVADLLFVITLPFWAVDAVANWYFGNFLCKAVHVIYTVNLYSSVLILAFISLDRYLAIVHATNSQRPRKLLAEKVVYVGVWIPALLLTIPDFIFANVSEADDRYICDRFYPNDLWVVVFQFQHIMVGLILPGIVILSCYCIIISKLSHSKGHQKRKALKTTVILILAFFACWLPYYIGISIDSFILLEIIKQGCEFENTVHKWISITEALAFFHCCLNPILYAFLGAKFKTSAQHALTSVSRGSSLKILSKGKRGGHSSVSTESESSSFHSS", "details": "EGFP-CXCR4+ HEK cells, 1 h preincubation", "protocol": "The identification of neutraligands relies on the measurement of kinetic-based calcium responses.\nMonitoring calcium responses in a time-resolved manner allows the discrimination of compounds binding to the chemokine from those binding to the receptor. This is achieved using a pre-incubation protocol in which the tested compounds are preincubated with the receptor or with the chemokine prior to calcium monitoring. […] These incubation protocols are named Time-Resolved Intracellular Calcium recordings (TRIC-r) allowing the identification of neutraligands versus receptor antagonists."}, "CCL22": {"target": "T1, CCL22 (Homo sapiens, UniProt O00626)", "T1 construct": "codes for the mature CCL17 or CCL22 with an N-terminal thioredoxin-hexahistidin (TRX- (His)6) tag; thioredoxin (TRX) (N, cleaved yes); (His)6 (N, cleaved yes); made in house; host or cells: E. coli BL21 (DE3)", "T1 sequence (O00626 25-93)": "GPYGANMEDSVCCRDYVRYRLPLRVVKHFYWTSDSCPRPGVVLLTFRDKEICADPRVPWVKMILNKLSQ", "test": "Tryptophan fluorescence assay on CCL22", "format": "binding", "details": "0–25 μM compound", "description": "(§1) Fluorescence measurements were performed on a spectrofluorometer (JobinYvon/Spex) in a quartz microcuvette at 20 °C. […] The fluorescence emission spectra were corrected by subtracting the emission scan of the compounds alone and data analysis was carried out with fluorescence intensities detected at 340 nm."}, "CCR4+ HUT78 cells": {"test_system": "CCR4+ HUT78 cells", "test": "HUT78 chemotaxis: compounds alone or preincubated with the cells (antagonist protocol)", "format": "cell-based, human", "details": "receptor antagonist protocol, 1 μM, 3 nM CCL17 or CCL22", "description": "Cell migration was carried out in RPMI1640-BSA (0.1%) using Transwell 96-well plates (Corning Costar, 5 μm pore size, polycarbonate membranes). […] Lower wells contained the same medium diluted with DMSO or chemokine (3 nM CCL17 or CCL22).\n0.1% BSA using Transwell 96-well plates (Corning Costar, 5µm pore size, polycarbonate […]\nthe same medium diluted with DMSO or chemokine (3nM CCL17 or CCL22). In neutraligand inhibition studies, prior to their use, CCL17 (a) and CCL22 (b) were pre-incubated with […]\nin the lower compartment. For characterization of the antagonist properties, the compounds were pre-incubated with the cells in the upper compartment. C-021 (1µM, stripped bars), the CCR4 receptor antagonist, was used as a control in both incubation protocols. Results are expressed as the percentage of cells that migrated to the lower chamber. Data represent the means±SD. Experiments were performed in triplicate.\n(1 picture or pasted object on this page, not shown here)"}, "CCR4 [1]": {"target": "T2, CCR4 (Homo sapiens, UniProt P51679)", "T2 construct": "signal peptide fused to EGFP (N); expressed in transfected cells; host or cells: HEK-293", "T2 sequence (P51679 1-360)": "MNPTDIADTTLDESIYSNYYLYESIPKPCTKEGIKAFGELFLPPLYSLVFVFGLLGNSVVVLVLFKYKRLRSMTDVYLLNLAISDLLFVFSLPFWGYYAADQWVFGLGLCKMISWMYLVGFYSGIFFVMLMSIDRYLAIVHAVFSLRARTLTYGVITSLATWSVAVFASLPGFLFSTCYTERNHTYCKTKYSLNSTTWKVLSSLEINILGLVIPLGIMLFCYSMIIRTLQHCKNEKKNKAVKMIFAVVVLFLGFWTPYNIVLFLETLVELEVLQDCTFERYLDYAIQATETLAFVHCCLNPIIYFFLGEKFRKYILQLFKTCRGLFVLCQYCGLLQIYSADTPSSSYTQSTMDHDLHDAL", "test": "TRIC-r calcium assay, antagonist protocol: compound preincubated with CCR4-expressing cells", "format": "cell-based", "details": "primary screen", "description": "(§2) Two plates (96-well plates, Greiner) were prepared for the screen: one containing test compounds alone in order to determine their direct agonistic activity, and another one containing test compounds mixed with CCL17 or CCL22 at room temperature for 1 h (neutraligand protocol). The chemokines and test compounds were prepared at a 3× concentration, while digitonin was prepared at a 4× concentration. The CCR4 antagonist, C-021 served as control in the experiment. In the antagonist protocol, compounds were added to the cell plate (one compound per well) and incubated with cells for 30 min at room temperature, while the agonist (CCL17 or CCL22) was added to the ligand plate only.\nDye loaded cells were placed in the FlexStation 3 (Molecular Devices). Calcium mobilization was measured at 401 and 475 nm emission fluorescence after excitation at 355 nm. For the primary screening, the ligands (50μl of chemokine mixed with DMSO or test compounds) were added to the cells at 40 s, followed by digitonin addition (50μl) at 100 s to the cells. […] Raw fluorescence data (at 401 and 475 nm) were exported and the ratio 401/475 was calculated. The calcium response values (height of peak response over baseline) were determined. […] Hit molecules were confirmed by performing concentration-response curves and their half maximal inhibitory concentration (IC50) values were calculated using the Kaleidagraph software."}, "CCL17 [2]": {"target": "T3, CCL17 (Homo sapiens, UniProt Q92583)", "T3 construct": "codes for the mature CCL17 or CCL22 with an N-terminal thioredoxin-hexahistidin (TRX- (His)6) tag; thioredoxin (TRX) (N, cleaved yes); (His)6 (N, cleaved yes); made in house; host or cells: E. coli BL21 (DE3)", "T3 sequence (Q92583 24-94)": "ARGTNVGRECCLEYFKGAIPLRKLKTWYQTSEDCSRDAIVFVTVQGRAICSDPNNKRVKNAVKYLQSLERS", "test": "Tryptophan fluorescence assay on CCL17", "format": "binding", "details": "0–25 μM compound", "description": "as §1, with “°C. CCL17 and CCL22 (1.5 μM in HEPES buffer without BSA) were excited at 285 nm and emission spectra were recorded (300–400 nm).” for “°C.”"}, "CCL17 [3]": {"target": "T3, CCL17", "test": "TRIC-r calcium assay, neutraligand protocol: compound preincubated with CCL17, EGFP-CCR4+Gqi5+ HEK cells", "format": "cell-based", "details": "neutraligand protocol, control compound", "description": "EGFP-CCR4^+Gqi5^+HEKcells were loaded with fluorescent Ca^2+-indicator Indo-1 AM (5μM, Interchim) for 45 min at 37 °C. […] Cells (100,000 cells/well, 100μl) were seeded in black clear bottom 96-well plates (Greiner), and centrifuged at 250 × g for 5 min.\nas §2\nDye loaded cells were placed in the FlexStation 3 (Molecular Devices). […] For the primary screening, the ligands (50μl of chemokine mixed with DMSO or test compounds) were added to the cells at 40 s, followed by digitonin addition (50μl) at 100 s to the cells. Molecules were screened at a final concentration of 2μg/ml with 5 nM CCL17 or CCL22. […] The calcium response values (height of peak response over baseline) were determined. Hits were selected by comparing the response amplitude at the time of the chemokine addition ± test compound. The Z’ factor[29] was calculated according to the following equation: Z’ = 1-(3SD+ + 3SD−)/|Ave+ − Ave−|, where SD+ and Ave+ are respectively the standard deviation and the mean value of the positive controls (chemokine + DMSO), while SD− and Ave− are respectively the standard deviation and the mean value of the negative controls (HEPES-BSA (0.1%) mixed with DMSO, or cells mixed with C-021). Hit molecules were confirmed by performing concentration-response curves and their half maximal inhibitory concentration (IC50) values were calculated using the Kaleidagraph software."}, "CCR4 [4]": {"target": "T2, CCR4", "test": "Dose-response of chemokine-induced calcium responses in EGFP-CCR4+Gqi5+ HEK cells", "format": "cell-based", "details": "recombinant chemokine, + Gqi5, 21 °C", "description": "EGFP-CCR4^+Gqi5^+HEKcells were loaded with fluorescent Ca^2+-indicator Indo-1 AM (5μM, Interchim) for 45 min at 37 °C. The cells were detached in PBS-EDTA (5 mM) for 2 min, suspended in growth medium, pelleted by centrifugation at 320 × g for 5 min, and resuspended in HEPES-BSA buffer (137.5 mM NaCl, 6 mM KCl, 1.25 mM CaCl2, 1.25 mM MgCl2, 0.4 mM NaH2PO4, 5.6 mM glucose, 10 mM HEPES, BSA (0.1%, w/v), pH 7.4). Cells (100,000 cells/well, 100μl) were seeded in black clear bottom 96-well plates (Greiner), and centrifuged at 250 × g for 5 min.\nDye loaded cells were placed in the FlexStation 3 (Molecular Devices). Calcium mobilization was measured at 401 and 475 nm emission fluorescence after excitation at 355 nm. […] Raw fluorescence data (at 401 and 475 nm) were exported and the ratio 401/475 was calculated. The calcium response values (height of peak response over baseline) were determined. […] The Z’ factor[29] was calculated according to the following equation: Z’ = 1-(3SD+ + 3SD−)/|Ave+ − Ave−|, where SD+ and Ave+ are respectively the standard deviation and the mean value of the positive controls (chemokine + DMSO), while SD− and Ave− are respectively the standard deviation and the mean value of the negative controls (HEPES-BSA (0.1%) mixed with DMSO, or cells mixed with C-021). […]"}, "CCR4 [5]": {"target": "T2, CCR4", "test": "EGFP-CCR4 receptor surface level / endocytosis on EGFP-CCR4+ HEK cells", "format": "cell-based", "details": "100 nM chemokine, 30 min, EGFP-CCR4+ HEK cells", "description": "CCR4 levels were evaluated by flow cytometry (FACSCalibur, BD biosciences) using cell surface labeling of EGFP with monoclonal mouse anti-GFP (Roche Applied Science; 1:100 dilution) as primary antibody and R-phycoerythrin conjugated AffiniPure F (ab’)2 fragment goat anti-mouse (Immunotech; 1/100) as secondary antibody."}}, "data": [{"molecule": "c1cc(CN2CCCNCCNCCCNCC2)ccc1CN1CCCNCCNCCCNCC1", "note": "[AMD3100]", "values": [{"measurement": "amplitude of CXCL12 calcium responses, preincubation with the chemokine compared with preincubation with the receptor", "setting": "CXCR4", "result": "much greater"}]}, {"molecule": "COc1cc2nc(N3CCC(N4CCCCC4)CC3)nc(NC3CCCCCC3)c2cc1OC", "note": "[C-021, reference compound]", "values": [{"measurement": "change in tryptophan fluorescence of CCL22", "setting": "CCL22", "result": "No significant change"}, {"measurement": "inhibition of CCR4+ HUT78 T cell migration, compound preincubated with the cells", "setting": "CCR4+ HUT78 cells", "result": 90, "unit": "%"}, {"measurement": "effect on the response to CCL17 or CCL22 after preincubation with the receptor-expressing cells", "setting": "CCR4 [1]", "result": "abolished responses"}, {"measurement": "change in tryptophan fluorescence of CCL17", "setting": "CCL17 [2]", "result": "No significant change"}, {"measurement": "effect on CCL17 calcium responses after preincubation with the chemokine", "setting": "CCL17 [3]", "result": "not with the chemokine"}]}, {"molecule": "CCL17: recombinant human chemokine (Thymus and Activation-Regulated Chemokine), CCR4 agonist, produced in E. coli (protein, left off: thioredoxin (TRX), N-terminal, cleaved | His6, N-terminal, cleaved) ARGTNVGRECCLEYFKGAIPLRKLKTWYQTSEDCSRDAIVFVTVQGRAICSDPNNKRVKNAVKYLQSLERS", "values": [{"measurement": "EC50", "setting": "CCR4 [4]", "result": "3.7 ± 0.4", "unit": "nM"}, {"measurement": "CCR4 internalization (receptor endocytosis) induced by the chemokine", "setting": "CCR4 [5]", "result": "approximately 43.0 ± 3.0%"}]}, {"molecule": "CCL22: recombinant human chemokine (Macrophage-Derived Chemokine), CCR4 agonist, produced in E. coli (protein, left off: thioredoxin (TRX), N-terminal, cleaved | His6, N-terminal, cleaved, recombinant human chemokine (Macrophage-Derived Chemokine), CCR4 agonist, produced in E. coli) GPYGANMEDSVCCRDYVRYRLPLRVVKHFYWTSDSCPRPGVVLLTFRDKEICADPRVPWVKMILNKLSQ", "values": [{"measurement": "EC50", "setting": "CCR4 [4]", "result": "2.9 ± 0.5", "unit": "nM"}, {"measurement": "CCR4 internalization (receptor endocytosis) induced by the chemokine", "setting": "CCR4 [5]", "result": "78.0 ± 3.0", "unit": "%"}]}]}
